Here are results for eleven compounds from ChEMBL document CHEMBL1201862, “PubChem BioAssay data set” (2004).

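Values below derive from 48-hour exposures of cells grown in 96-well plates, with endpoints linearly interpolated between the two concentrations bracketing the appropriate inhibition level. GI50: concentration for 50% inhibition of growth.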 Activity calls are given as the source filed them. No stated cut-off is given here; in the data, active = GI50 up to about 1.1 µM and inactive = higher.

What all share (experiment): NCI-60 cell line screen, 48 h
Test [1] concerns A498.
Test [2] has as its system A549.
Test [3] deals with CCRF-CEM.
The test system of test [4] is COLO 205.
For test [5], the system named is HOP-92.
Test [6] deals with IGROV-1.
Test [7] concerns MOLT-4.
Test [8] relates to NCI-H226.
In test [9] the test system is OVCAR-3.
Test [10] relates to OVCAR-4.
The subject of test [11] is OVCAR-5.
Test [12] deals with SF-539.
The subject of test [13] is SK-MEL-28.
For test [14], the system named is SNB-19.
The test system of test [15] is TK-10.
Test [16] relates to U-251.
For test [17], the system named is UACC-257.
In test [18] the test system is UO-31.

With `COc1nc(NC2OCC(OC(C)=O)C(OC(C)=O)C2OC(C)=O)c(-c2csc(N)n2)c(=O)n1C` (stereo unspecified), the GI50 in test [1], in [2], in [3], in [4], in test [5] and in test [6] was > 100 µM (inactive) each time. Further, the GI50 in test [7], in [8], in test [9], in test [10], in test [11] and in [12] was > 100 µM (inactive) each time. For the same compound, the GI50 in test [13], in test [14], in [15], in test [16], in [17] and in test [18] was > 100 µM (inactive) each time.

For `c1ccc2c(c1)OCCOCCOc1ccccc1OCCO2`, the GI50 is > 100 µM (inactive) in test [1]; 71 µM (inactive) in [2]; 34.4 µM (inactive) in test [3]; 50.5 µM (inactive) in test [4]; 51.5 µM (inactive) in [5]; 71.8 µM (inactive) in test [6]. The GI50 in [7] is 47.5 µM (inactive); in test [8] it was 79.6 µM (inactive); in [9], 28.2 µM (inactive); in test [10] it was 39.3 µM (inactive); in [11] it was 77.3 µM (inactive); in test [12] it was > 100 µM (inactive). Moreover, the GI50 is > 100 µM (inactive) in test [13]; 64.6 µM (inactive) in test [14]; 45.6 µM (inactive) in [15]; 34.4 µM (inactive) in [16]; 84.7 µM (inactive) in test [17]; 30 µM (inactive) in test [18].

For `CC1=C(c2cc(C(=O)Nc3ccc(Cl)c(Cl)c3)nc(N)n2)Sc2ccccc2N1`, the GI50 in test [1], in test [2], in test [3], in [4], in [5] and in [6] was > 100 µM (inactive) each time. The GI50 in test [7], in test [8], in [9], in test [10], in [11] and in [12] was > 100 µM (inactive) each time. Also, the GI50 in test [13], in [14], in [15], in test [16], in test [17] and in [18] was > 100 µM (inactive) in each case.

For `CC1=C(O)C(=O)C2C(=O)C1C1Cc3ccccc3C21` (stereo unspecified), the GI50 in test [1], in test [2], in [3], in [4], in [5] and in test [6] was > 100 µM (inactive) in each case. In addition, the GI50 in [7], in [8], in test [9], in test [10], in test [11] and in test [12] was > 100 µM (inactive) throughout. In addition, the GI50 in test [13], in [14], in [15], in test [16] and in [18] was > 100 µM (inactive) in each case.

Consider `COc1cc2c(c(OC)c1OC)-c1ccc(SC)c(=O)cc1C(CC(=O)Oc1ccc(F)cc1)C2` (stereo unspecified), for which the GI50 in test [1] is 0.0374 µM (active); in test [2], 0.134 µM (active); in test [3], 0.238 µM (active); in [4], 0.133 µM (active); in [5] it was 1.21 µM (inactive); in [6] it was 0.605 µM (active). For the same compound, the GI50 in [7] is 0.436 µM (active); in test [8] it was 0.231 µM (active); in test [9], 0.134 µM (active); in test [10], 0.741 µM (active); in test [11], 39.1 µM (inactive); in [12], 0.117 µM (active). Besides, the GI50 is 0.48 µM (active) in test [13]; 0.255 µM (active) in test [14]; 40.8 µM (inactive) in [15]; 0.159 µM (active) in [16]; 38.9 µM (inactive) in [17]; 0.817 µM (active) in test [18].

In the case of `Cc1ccc(-c2nc3c(C(=O)NCCN(C)C)cccc3[nH]2)cc1`, the GI50 was 13 µM (inactive) in test [1]; 11.2 µM (inactive) in [2]; 11.5 µM (inactive) in test [3]; 8 µM (inactive) in test [4]; 13.1 µM (inactive) in test [5]; 15.9 µM (inactive) in [6]. For the same compound, the GI50 in [7] was 3.51 µM (inactive); in [8], 11.9 µM (inactive); in test [9], 21.5 µM (inactive); in test [10], 22.9 µM (inactive); in test [11], 20.9 µM (inactive); in test [12] it was 9.12 µM (inactive). Moreover, the GI50 in [13] was 18.4 µM (inactive); in test [14], 26.1 µM (inactive); in test [15] it was 17.7 µM (inactive); in test [16], 18.3 µM (inactive); in test [17], 14 µM (inactive); in test [18], 9.79 µM (inactive).

Take `COc1cc2c(cc1OC)[Se]c1cc(OC)c(OC)cc1[Se]2`: the GI50 in test [1] was > 10 µM (inactive); in test [2] it was > 10 µM (inactive); in test [3], > 10 µM (inactive); in [4], > 10 µM (inactive); in [5], 69 µM (inactive); in test [6] it was > 10 µM (inactive). The GI50 was > 100 µM (inactive) in [7]; > 10 µM (inactive) in test [8]; > 10 µM (inactive) in test [9]; > 10 µM (inactive) in test [10]; > 10 µM (inactive) in test [11]; 90.8 µM (inactive) in test [12]. Besides, the GI50 in test [13], in test [14], in test [15], in [16], in test [17] and in test [18] was > 10 µM (inactive) in each case.

For `COc1ccc2c3c([nH]c2c1[N+](=O)[O-])C(C)N(C)CC3` (stereo unspecified), the GI50 in [1] was > 100 µM (inactive); in test [2] it was > 100 µM (inactive); in test [3] it was 32.4 µM (inactive); in test [4], 50.4 µM (inactive); in test [5], 34 µM (inactive); in [6] it was > 100 µM (inactive). The GI50 in [7] was 51.6 µM (inactive); in test [8], > 100 µM (inactive); in test [9], > 100 µM (inactive); in test [10], 38 µM (inactive); in test [11] it was > 100 µM (inactive); in [12], > 100 µM (inactive). Also, the GI50 in [13] was > 100 µM (inactive); in [14], > 100 µM (inactive); in [15], > 100 µM (inactive); in [16] it was > 100 µM (inactive); in test [17], > 100 µM (inactive); in test [18] it was 76.2 µM (inactive).

With `O=C(O)c1c2c(c(C(=O)O)c3ccccc13)-c1ccccc1-2`, the GI50 is 44.1 µM (inactive) in [1]; 36 µM (inactive) in test [2]; 32.5 µM (inactive) in test [3]; 71.3 µM (inactive) in test [4]; 23.3 µM (inactive) in test [5]; > 10 µM (inactive) in test [6]. Also, the GI50 was 39.5 µM (inactive) in test [7]; 34 µM (inactive) in [8]; 27.5 µM (inactive) in test [9]; > 100 µM (inactive) in test [11]; 28.7 µM (inactive) in test [12]; 20.3 µM (inactive) in test [13]. Moreover, the GI50 in test [14] was 36.6 µM (inactive); in test [15], 36.1 µM (inactive); in test [16], 35.6 µM (inactive); in [17], 47.5 µM (inactive); in test [18] it was 28.1 µM (inactive).

For the compound `CC1=CC(=O)c2c(C=O)c(O)c(O)c(C(C)C)c2C1=O`, the GI50 in test [1] is 24.4 µM (inactive); in [3], 14.7 µM (inactive); in test [4] it was 25.1 µM (inactive); in test [5], 20.9 µM (inactive); in test [6], 22.5 µM (inactive); in [7] it was 21.2 µM (inactive). The GI50 was 10.6 µM (inactive) in test [8]; 14.6 µM (inactive) in [10]; 35.5 µM (inactive) in [11]; 25.6 µM (inactive) in test [12]; 34 µM (inactive) in [13]; 39.5 µM (inactive) in test [14]. Moreover, the GI50 in [16] is 19.8 µM (inactive); in test [18], 22 µM (inactive).

On to `Cc1cccc(C)c1NC(=O)CCCC(=O)C(C#N)c1ccccc1` (stereo unspecified), for which the GI50 is > 10 µM (inactive) in test [1]; > 10 µM (inactive) in test [2]; > 100 µM (inactive) in [3]; > 100 µM (inactive) in test [4]; > 100 µM (inactive) in test [5]; > 100 µM (inactive) in test [6]. Also, the GI50 in test [7] was > 100 µM (inactive); in test [8] it was > 100 µM (inactive); in test [9] it was > 10 µM (inactive); in [10], > 100 µM (inactive); in [11], > 10 µM (inactive); in test [12], > 10 µM (inactive). Further, the GI50 in test [13] is > 100 µM (inactive); in test [14], > 10 µM (inactive); in [16] it was > 10 µM (inactive); in test [17], > 100 µM (inactive); in test [18], > 100 µM (inactive).
